According to patent US11242334B2, “Heterocyclic compounds as kinase inhibitors, compositions comprising the heterocyclic compound, and methods of use thereof” (JS INNOPHARM (SHANGHAI) LTD, priority 2017, dated 2022):

Tests used:
[1] = tested on: Colo205 cell line; test: Colo205 cell proliferation assay (MTT assay, WST-8 readout); assay type: cell-based; details: IC50 values of growth inhibition in Colo 205 cells, 72 hours
Description: Compounds disclosed herein were tested for the inhibition of ERK2 by a Colo205 cell proliferation assay commonly known as MTT assay. In this assay, a complete media was prepared by adding 10% fetal bovine serum to RPMI-1640 medium (Life technology). Colon cancer cells (Colo205 cell line) were added to each of 88 wells of a 96 well plate at a seeding density of 5,000 cells/well/90 μL. The cells were allowed to attach to the plate by incubating at 37° C. for 24 hours. The compound was dissolved in DMSO (SIGMA). A solution of test compound was prepared in complete media by serial dilution to obtain the following concentrations: 500 μM, 150 μM, 50 μM, 15 μM, 5 μM, 1.5 μM, 0.5 μM, 0.15 μM and 0.05 μM. The test compound solution (10 μL) was added to each of 80 cell-containing wells. The final concentrations of the compound were following: 50 μM, 15 μM, 5 μM, 1.5 μM, 0.5 μM, 0.15 μM, 0.05 μM, 0.015 μM and 0.005 μM. The final concentration of DMSO is 0.5%. To the 8 remaining cell-containing wells, only complete media (containing 0.5% DMSO) was added to form a control group in order to measure maximal proliferation. To the remaining 8 empty wells, complete media was added to for a vehicle control group in order to measure background. The plates were incubated at 37° C. for 72 hours. 10 μL WST-8 solution (DOJINDO, Cell Counting KIT-8) was added to each well. The plates were further incubated at 37° C. for 2 hours, and then read for the absorbance using a microplate reader at 450 nm.
The IC50 values of growth inhibition in Colo 205 cells for Compounds disclosed are listed in Table 3, A′: ≤0.5 μM; B′: >0.5 μM and ≤1 μM; C′: >1.0 μM and ≤5 uM; D′: >5 μM.

[2] = target: T1, human ERK2 (Homo sapiens, UniProt P28482); test: LanthaScreen TR-FRET enzymatic assay, ERK2; details: IC50 values of ERK2 biochemical activity; 5 μM ATP, 400 nM ATF2-GFP substrate
T1 construct: recombinantly expressed as GST-tagged full-length protein purified from E. coli; GST; purchased Invitrogen PV3311; host or cells: E. coli
T1 sequence (P28482 whole entry): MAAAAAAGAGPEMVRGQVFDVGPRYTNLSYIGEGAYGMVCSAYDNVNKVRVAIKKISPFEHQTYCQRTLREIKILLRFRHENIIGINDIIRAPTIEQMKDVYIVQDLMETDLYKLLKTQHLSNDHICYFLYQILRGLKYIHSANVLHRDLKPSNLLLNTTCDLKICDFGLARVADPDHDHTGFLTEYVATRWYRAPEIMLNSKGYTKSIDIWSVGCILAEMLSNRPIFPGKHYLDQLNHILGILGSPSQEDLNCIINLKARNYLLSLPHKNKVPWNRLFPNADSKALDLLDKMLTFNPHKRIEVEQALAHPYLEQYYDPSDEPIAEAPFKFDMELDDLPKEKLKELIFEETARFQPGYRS
Description: Compounds were tested in a LanthaScreen™ time-resolved fluorescence energy transfer (TR-FRET) enzymatic assay from Invitrogen. The assay used human ERK2 (Mitogen Activated Kinase 1, Invitrogen, Cat. PV3311) recombinantly expressed as GST-tagged full-length protein purified from E. coli and activated in vitro with MAP2K1. The substrate was a recombinant truncated version (residues 19-96) of ATF2 fused with Green Fluorescent Protein (Invitrogen, Cat. PV4445). Test compounds were prepared and diluted in DMSO in 3-fold serial dilutions to 100× of the final testing concentrations. The compounds were then further diluted to 4× by the kinase reaction buffer (Invitrogen, Cat. PV3189). The enzymatic reaction for compound testing was performed in a white 384-well polypropylene plate (Packard, Cat. 6005214) with a total reaction volume of 10 μl containing 20 ng/ml ERK2, 400 nM substrate, and 5 μM ATP that is around its Km. The assay started with loading 2.5 μl of ERK2 diluted in kinase reaction buffer to wells, followed by addition of equal volume of 4× compounds for 15-min incubation at the room temperature for pre-treatment. The enzymatic reaction was initiated by addition of 5 μl of mixture of the substrate and ATP prepared in kinase reaction buffer. After one hour reaction, 10 μl mixture of EDTA (final 10 mM) and terbium-labeled anti-pATF2 (pThr71) antibody (final 2 nM) (Invitrogen, Cat. PV4451) prepared in TR-FRET antibody dilution buffer (Invitrogen, Cat. PV3574) was added to stop the enzymatic reaction and produce TR-FRET signals. After 30 minutes of incubation at room temperature, the plate was read in Tecan Infinite F200 Pro with the following settings: Excitation 340 nm (30)/Emission1 495 nm (10)/Emission2 520 nm (25). The TR-FRET values were dimensionless numbers that were calculated as the ratio of the acceptor ([…]) signal to the donor (Terbium) signal. Percent of control was calculated as the percentage of compound-treated vs 1% DMSO vehicle-treated. The dose-response curves were generated and the ICsos were calculated by nonlinear sigmoid curve fitting using GraphPad Prism.
The IC50 values of ERK2 biochemical activity for the examples disclosed herein are listed in Table 3, A: ≤10 nM; B: >10 nM and ≤50 nM; C: >50 nM and ≤100 nM; D.>100 nM.

SMILES	IC50 ([1]; Homo sapiens) [nM]	IC50 [2] [nM]	IC50 [1] [nM]
C[C@@H](c1cc(F)cc(Br)c1)n1ccc(-c2ccc3[nH]nc(-c4cnn(C)c4)c3c2)cc1=O (single isomer, unassigned) [Example 96A]	1000 to 5000	< 10	–
C[C@H](c1cc(F)cc(Br)c1)n1ccc(-c2ccc3[nH]nc(-c4cnn(C)c4)c3c2)cc1=O (single isomer, unassigned) [Example 96B]	≤ 500	< 10	–
Cc1cc(-c2n[nH]c3ccc(-c4ccn([C@H](CO)c5cccc(Cl)c5)c(=O)c4)cc23)ccn1 [Example 1, (S)-1-(1-(3-chlorophenyl)-2-hydroxyethyl)-4-(3-(2-methyl-pyridin-4-yl)-1H-indazol-5-yl)pyridin-2(1H)-one]	≤ 500	< 10	–
Cc1cc(-c2n[nH]c3ccc(-c4ccn(CCN5CCOCC5)c(=O)c4)cc23)ccn1 [Example 54, 4-(3-(2-methylpyridin-4-yl)-1H-indazol-5-yl)-1-(2-morpholinoethyl)pyridin-2(1H)-one]	> 5000	–	–
O=c1cc(-c2ccc3[nH]nc(-c4ccc(F)cn4)c3c2)ccn1[C@H](CO)c1cc(F)cc(Br)c1 [Example 125, (S)-1-(1-(3-bromo-5-fluorophenyl)-2-hydroxyethyl)-4-(3-(5-fluoropyridin-2-yl)-1H-indazol-5-yl)pyridin-2(1H)-one]	500 to 1000	–	–
Cc1nc2ccc(-c3n[nH]c4ccc(-c5ccn([C@H](CO)c6cc(F)cc(Br)c6)c(=O)c5)cc34)cn2n1 [Example 130, (S)-1-(1-(3-bromo-5-fluorophenyl)-2-hydroxyethyl)-4-(3-(2-methyl-[1,2,4]triazolo[1,5-a]pyridin-6-yl)-1H-indazol-5-yl)pyridin-2(1H)-one]	≤ 500	–	–
Cc1cc(-c2n[nH]c3ccc(-c4ccn(Cc5ccc(C(F)(F)F)nc5)c(=O)c4)cc23)ccn1 [Example 131, 4-(3-(2-methylpyridin-4-yl)-1H-indazol-5-yl)-1-((6-(trifluoromethyl)pyridin-3-yl)methyl)pyridin-2(1H)-one]	1000 to 5000	–	–
CCc1cc(-c2n[nH]c3ccc(-c4ccn(Cc5ccnc(C(F)(F)F)c5)c(=O)c4)cc23)ccn1 [Example 132, 4-(3-(2-ethylpyridin-4-yl)-1H-indazol-5-yl)-1-((2-(trifluoromethyl)pyridin-4-yl)methyl)pyridin-2(1H)-one]	1000 to 5000	–	–
O=c1cc(-c2ccc3[nH]nc(-c4ccnc(C5CC5)c4)c3c2)ccn1Cc1ccnc(C(F)(F)F)c1 [Example 133, 4-(3-(2-cyclopropylpyridin-4-yl)-1H-indazol-5-yl)-1-((2-(trifluoromethyl)pyridin-4-yl)methyl)pyridin-2(1H)-one]	1000 to 5000	–	–
Cc1cc(-c2n[nH]c3ccc(-c4ccn([C@H](CO)c5ccnc(C(F)(F)F)c5)c(=O)c4)cc23)ccn1 [Example 134, (S)-1-(2-hydroxy-1-(2-(trifluoromethyl)pyridin-4-yl)ethyl)-4-(3-(2-methylpyridin-4-yl)-1H-indazol-5-yl)pyridin-2(1H)-one]	1000 to 5000	–	–
Cc1cc(-c2n[nH]c3ccc(-c4ccn(Cc5cccnc5C(F)(F)F)c(=O)c4)cc23)ccn1 [Example 136, 4-(3-(2-methylpyridin-4-yl)-1H-indazol-5-yl)-1-((2-(trifluoromethyl)pyridin-3-yl)methyl)pyridin-2(1H)-one]	1000 to 5000	–	–
CNc1n[nH]c2ccc(-c3ccn([C@H](CO)c4cc(F)cc(Br)c4)c(=O)c3)cc12 [Example 141, (S)-1-(1-(3-bromo-5-fluorophenyl)-2-hydroxyethyl)-4-(3-(methylamino)-1H-indazol-5-yl)pyridin-2(1H)-one]	1000 to 5000	–	–
Cc1cc(-c2n[nH]c3ccc(-c4ccn([C@@H](C)c5ccnc(C(F)(F)F)c5)c(=O)c4)cc23)ccn1 [Example 142A, (S)-4-(3-(2-methylpyridin-4-yl)-1H-indazol-5-yl)-1-(1-(2-(trifluoromethyl)pyridin-4-v1)ethyl)pyridin-2(1H)-one]	–	–	1000 to 5000
O=c1cc(-c2ccc3[nH]nc(N4CCC(O)C4)c3c2)ccn1[C@H](CO)c1cc(F)cc(Br)c1 (stereo partly drawn) [Example 151, 1-((S)-1-(3-bromo-5-fluorophenyl)-2-hydroxyethyl)-4-(3-(3-hydroxypyrrolidin-1-yl)-1H-indazol-5-yl)pyridin-2(1H)-one]	1000 to 5000	–	–

Second part, the compound after the results:

IC50 ([1]; Homo sapiens) [nM]	IC50 [2] [nM]	IC50 [1] [nM]	SMILES
≤ 500	–	–	Cc1cc(-c2n[nH]c3ccc(-c4ccn([C@H](C)c5ccnc(C(F)(F)F)c5)c(=O)c4)cc23)ccn1 (single isomer, unassigned) [Example 142B]
> 5000	–	–	O=c1cc(-c2ccc3[nH]nc(-c4ccnc(C(F)(F)F)c4)c3c2)ccn1Cc1ccnc(C(F)(F)F)c1 [Example 126, 4-(3-(2-(trifluoromethyl)pyridin-4-yl)-1H-indazol-5-yl)-1-((2-(trifluoromethyl)pyridin-4-yl)methyl)pyridin-2(1H)-one]
1000 to 5000	–	–	Cc1cc(Cn2ccc(-c3ccc4[nH]nc(-c5ccnc(C)c5)c4c3)cc2=O)ccn1 [Example 127, 4-(3-(2-methylpyridin-4-yl)-1H-indazol-5-yl)-1-((2-methylpyridin-4-yl)methyl)pyridin-2(1H)-one]
≤ 500	–	–	O=c1cc(-c2ccc3[nH]nc(-c4ccc5ncnn5c4)c3c2)ccn1[C@H](CO)c1cc(F)cc(Br)c1 [Example 128, (S)-4-(3-([1,2,4]triazolo[1,5-a]pyridin-6-yl)-1H-indazol-5-yl)-1-(1-(3-bromo-5-fluorophenyl)-2-hydroxyethyl)pyridin-2(1H)-one]
≤ 500	–	–	O=c1cc(-c2ccc3[nH]nc(-c4ccc5nccn5c4)c3c2)ccn1[C@H](CO)c1cc(F)cc(Br)c1 [Example 129, (S)-1-(1-(3-bromo-5-fluorophenyl)-2-hydroxyethyl)-4-(3-(imidazo[1,2-a]pyridin-6-yl)-1H-indazol-5-yl)pyridin-2(1H)-one]
1000 to 5000	–	–	Cc1cc(-c2n[nH]c3ccc(-c4ccn(Cc5nc(C(F)(F)F)cs5)c(=O)c4)cc23)ccn1 [Example 135]
500 to 1000	–	–	Cc1cc(-c2n[nH]c3ccc(-c4ccn(Cc5cccc(C(F)(F)F)n5)c(=O)c4)cc23)ccn1 [Example 137, 4-(3-(2-methylpyridin-4-yl)-1H-indazol-5-yl)-1-((6-(trifluoromethyl)pyridin-2-yl)methyl)pyridin-2(1H)-one]
500 to 1000	–	–	Cc1nn(C)cc1-c1n[nH]c2ccc(-c3ccn([C@H](CO)c4cc(F)cc(Br)c4)c(=O)c3)cc12 [Example 138, (S)-1-(1-(3-bromo-5-fluorophenyl)-2-hydroxyethyl)-4-(3-(1,3-dimethyl-1H-pyrazol-4-yl)-1H-indazol-5-yl)pyridin-2(1H)-one]
1000 to 5000	–	–	Cc1cc(-c2n[nH]c3ccc(-c4ccn(Cc5cc(C(F)(F)F)no5)c(=O)c4)cc23)ccn1 [Example 139, 4-(3-(2-methylpyridin-4-yl)-1H-indazol-5-yl)-1-((3-(trifluoromethyl)isoxazol-5-yl)methyl)pyridin-2(1H)-one]
1000 to 5000	–	–	O=c1cc(-c2ccc3[nH]nc(C4CCOC4)c3c2)ccn1[C@H](CO)c1cc(F)cc(Br)c1 (stereo partly drawn) [Example 150, 1-((S)-1-(3-bromo-5-fluorophenyl)-2-hydroxyethyl)-4-(3-(tetrahydrofuran-3-yl)-1H-indazol-5-yl)pyridin-2(1H)-one]
